Reference: US9096560B2, “5-heterocyclylalkyl-3-hydroxy-2-phenylcyclopent-2-enones as herbicides” (Syngenta Limited, priority 2008, dated 2015)

Key:
Type in all cases: in vivo
Lolium perenne (LOLPE) [1] = test: Example B pre-emergence herbicidal test, LOLPE; settings: Lolium perenne, 312 h, rate 250 g/ha, evaluated after 13 days, 100=total damage to plant, 0=no damage to plant
Method in brief: (§1)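 Pre-emergence spray one day after sowing; vehicle acetone/water (50:50), 0.5% Tween 20. Percent damage (0 = no effect, 100 = plant killed) recorded 13 days later.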

[2] = system: Alopecurus myosuroides (ALOMY); test: Example B pre-emergence herbicidal test, ALOMY; settings: Alopecurus myosuroides, 312 h, rate 250 g/ha, evaluated after 13 days, 100=total damage to plant, 0=no damage to plant
Method in brief: as §1

[3] = system: Echinochloa crus-galli (ECHCG); test: Example B pre-emergence herbicidal test, ECHCG; settings: Echinochloa crus-galli, 312 h, rate 250 g/ha, evaluated after 13 days, 100=total damage to plant, 0=no damage to plant
Method in brief: as §1

Avena fatua (AVEFA) [4] = test: Example B pre-emergence herbicidal test, AVEFA; settings: Avena fatua, 312 h, rate 250 g/ha, evaluated after 13 days, 100=total damage to plant, 0=no damage to plant
Method in brief: as §1

Lolium perenne (LOLPE) [5] = test: Example B post-emergence herbicidal test, LOLPE; settings: Lolium perenne, 312 h, rate 250 g/ha, evaluated after 13 days, scale 0-100, read-out: Post-emergence activity LOLPE (100=total damage to plant; 0=no damage to plant)
Method in brief: (§2)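 Plants grown from seed in standard soil for 8 days in a glasshouse (24/16 °C day/night, 14 h light, 65% humidity), then sprayed with an aqueous solution from the active ingredient formulated in acetone/water (50:50) with 0.5% Tween 20. Damage scored after 13 days, 0 (none) to 100 (total).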

[6] = system: Alopecurus myosuroides (ALOMY); test: Example B post-emergence herbicidal test, ALOMY; settings: Alopecurus myosuroides, 312 h, rate 250 g/ha, evaluated after 13 days, scale 0-100, read-out: Post-emergence activity ALOMY (100=total damage to plant; 0=no damage to plant)
Method in brief: as §2

[7] = system: Echinochloa crus-galli (ECHCG); test: Example B post-emergence herbicidal test, ECHCG; settings: Echinochloa crus-galli, 312 h, rate 250 g/ha, evaluated after 13 days, scale 0-100, read-out: Post-emergence activity ECHCG (100=total damage to plant; 0=no damage to plant)
Method in brief: as §2

Avena fatua (AVEFA) [8] = test: Example B post-emergence herbicidal test, AVEFA; settings: Avena fatua, 312 h, rate 250 g/ha, evaluated after 13 days, scale 0-100, read-out: Post-emergence activity AVEFA (100=total damage to plant; 0=no damage to plant)
Method in brief: as §2

Compound	pest or weed control at 250 g/ha (Lolium perenne (LOLPE) [1])	pest or weed control at 250 g/ha [2]	pest or weed control at 250 g/ha [3]	pest or weed control at 250 g/ha (Avena fatua (AVEFA) [4])	pest or weed control at 250 g/ha (Lolium perenne (LOLPE) [5])	pest or weed control at 250 g/ha [6]	pest or weed control at 250 g/ha [7]	pest or weed control at 250 g/ha (Avena fatua (AVEFA) [8])
Cc1cc(-c2ccc(F)cc2)cc(C)c1C1C(=O)C/C(=C\C2CCOCC2)C1=O (stereo not drawn) [Compound T61]	90%	70%	90%	80%	90%	90%	100%	100%
Cc1cc(-c2ccc(F)cc2)cc(C)c1C1C(=O)CC(CC2CCOCC2)C1=O (stereo not drawn) [Compound T63]	100%	70%	100%	90%	90%	90%	90%	100%
Cc1cc(-c2ccc(F)c(Cl)c2)cc(C)c1C1C(=O)C/C(=C\C2CCOCC2)C1=O (stereo not drawn) [Compound T65]	80%	70%	100%	80%	90%	90%	100%	100%
Cc1cc(C)c(C2C(=O)CC(CC3CCN(C(=O)Oc4ccccc4)CC3)C2=O)c(C)c1 (stereo not drawn) [Compound T68]	90%	30%	50%	40%	90%	60%	90%	90%
CCCCOC(=O)N1CCC(CC2CC(=O)C(c3c(C)cc(C)cc3C)C2=O)CC1 (stereo not drawn) [Compound T69]	10%	0%	20%	10%	30%	30%	20%	30%
Cc1cc(C)c(C2C(=O)CC(CC3CCN(C(=O)c4ccccc4)CC3)C2=O)c(C)c1 (stereo not drawn) [Compound T70]	70%	20%	60%	70%	80%	70%	80%	100%
Cc1cc(C)c(C2C(=O)CC(CC3CCN(C(=O)c4ccc(Cl)cc4Cl)CC3)C2=O)c(C)c1 (stereo not drawn) [Compound T71]	30%	20%	10%	20%	40%	30%	70%	80%
Cc1cc(C)c(C2C(=O)CC(CC3CCN(C(=O)c4ccccc4C)CC3)C2=O)c(C)c1 (stereo not drawn) [Compound T72]	60%	30%	80%	20%	80%	50%	90%	80%
Cc1cc(C)c(C2C(=O)CC(CC3CCN(C(=O)c4cccc(Cl)c4)CC3)C2=O)c(C)c1 (stereo not drawn) [Compound T73]	80%	40%	80%	80%	80%	90%	90%	100%
Cc1cc(C)c(C2C(=O)CC(CC3CCN(C(=O)c4ccc(Cl)c(Cl)c4)CC3)C2=O)c(C)c1 (stereo not drawn) [Compound T74]	30%	30%	50%	20%	40%	70%	100%	90%
Cc1cc(C)c(C2C(=O)CC(CC3CCN(C(=O)c4ccc(Cl)cc4)CC3)C2=O)c(C)c1 (stereo not drawn) [Compound T76]	60%	30%	60%	20%	40%	90%	90%	100%
Cc1cc(C)c(C2C(=O)CC(CC3CCN(C(=O)c4ccc(-c5ccccc5)cc4)CC3)C2=O)c(C)c1 (stereo not drawn) [Compound T77]	0%	0%	0%	0%	40%	30%	20%	40%
Cc1ccc(C(=O)N2CCC(CC3CC(=O)C(c4c(C)cc(C)cc4C)C3=O)CC2)cc1 (stereo not drawn) [Compound T78]	30%	20%	30%	0%	50%	40%	70%	40%
Cc1cc(C)c(C2C(=O)CC(CC3CCN(C(=O)C(C)(C)C)CC3)C2=O)c(C)c1 (stereo not drawn) [Compound T79]	90%	60%	60%	20%	60%	60%	70%	80%
Cc1cc(C)c(C2C(=O)CC(CC3CCN(C(=O)C(C)C)CC3)C2=O)c(C)c1 (stereo not drawn) [Compound T80]	100%	70%	70%	70%	90%	90%	80%	100%
COCC(=O)N1CCC(CC2CC(=O)C(c3c(C)cc(C)cc3C)C2=O)CC1 (stereo not drawn) [Compound T81]	80%	80%	60%	80%	90%	90%	80%	100%
Cc1cc(C)c(C2C(=O)CC(CC3CCN(C(=O)Cc4ccccc4)CC3)C2=O)c(C)c1 (stereo not drawn) [Compound T82]	90%	50%	60%	50%	90%	90%	80%	100%
CCC(=O)N1CCC(CC2CC(=O)C(c3c(C)cc(C)cc3C)C2=O)CC1 (stereo not drawn) [Compound T83]	90%	60%	90%	70%	90%	80%	70%	100%
